From patent US9896491B2, “Composition for treatment of multiple sclerosis” (LIFEBIO LABORATORIES LLC, priority 2009, dated 2018)
Read-outs that look alike come from different tables or passages of the source.

How the values were obtained:
ESAMBPCAA [1] = assay: ESAMBPCAA mediated MBP hydrolysis in serum of treated TMEV-infected SJL mice; assay type: in vivo; conditions: days 14-24
Description: (§1) MBP hydrolysis by anti MBP auto antibodies was assayed as follows: Purified antibodies (0.1-1 μg) were incubated at 37° C. for 14 h in the final volume of 12.5 μl PBS, 0.02% NaN3 containing 1-2 μg of MBP. The samples were mixed with Laemmli's buffer. The extent of MBP degradation was visualized by SDS-PAGE in Tris-glycine and Tricine buffer systems. For quantitative MBP degradation assay, MBP (10 μM) was incubated at 37° C. with antibodies (60 nM) in 0.1 ml of PBS, 0.02% NaN3 for 12 h. The reaction was stopped by adding 10% TFA up to pH 2.5. The samples were further chromatographed on column C4 4.0/150 (Waters). The amount of non-cleaved MBP was calculated by absorbance monitoring at 280 nm.
(§2) The BeAn strain of TMEV used in this study was generated and propagated in BHK-21 cells grown in Dulbecco's modified Eagle's medium supplemented with 7.5% donor calf serum. For i.c. infection, 30 μl of virus solution (0.2×10^6 to 6×10^6 PFU) was injected into the right cerebral hemisphere of 6- to 8-week-old SJL mice (8 animals per group) anesthetized with isoflurane. Clinical symptoms (MDS score) of disease were assessed weekly on the following grading scale: grade 0, no clinical signs; grade 1, mild waddling gait or flaccid tail; grade 2, severe waddling gait; grade 3, moderate hind limb paresis; and grade 4, severe hind limb paralysis. Serum samples collected from animals were quantified for ESAMBPCAA mediated MBP hydrolysis as specified in Example 1
(§3) At day 14 following infection mice were divided into 6 groups ([…]) and treated during 10 days (days 14-24) according following schedule: […]

[2] = tested on: Experimental Allergic Encephalomyelitis (EAE) in Dark Agouti (DA) Rats; assay: EAE induced by MBP 63-81 in DA rats: clinical signs score; assay type: in vivo; conditions: for therapeutic effect: 150 μg/rat/day SC during 6 days; for Clinical signs score on day 23 after induction (mean): 150 μg/rat/day SC during 6 days from day 9-11 after EAE induction, score 0-5
Description: Female Dark Agouti (DA) Rats, 8-9 weeks of age, about 110-145 g of weight were used as test animals.
For induction of Experimental Allergic Encephalomyelitis (EAE), rats were injected intradermally at the base of the tail with a total volume of 200 μl of inoculum containing 50 μg of MBP 63-81 (ANASPEC), in saline mixed (1:1) with Complete Freund Adjuvant, (IFA, Sigma), and 1 mg killed M. tuberculosis strain (strain H37 RA; Difco Laboratories, Detroit, Mich.). Beginning 24 hours after EAE induction the rats were followed up daily. On day 9 after the after EAE induction more than 50% of the rats developed signs of paralysis. The animals with multiple sclerosis signs were separated into 10 groups for beginning of treatment. Prior to treatment, blood was collected from 2 rats from each group. At day 9 and 11 after EAE induction, 90% of rats developed signs of EAE.
9-11 days after EAE induction the animals were divided into 9 groups (5-6 rats in each). Each group of rats was treated subcutaneously once daily with different claimed oligopeptide or theirs combinations (equimolar mix) (150 μg) or doses of positive control item (Glatiramer acetate, Copaxone, Teva) or negative control item (0.9% Sodium chloride solution), during 6 days as follows:
Copaxone, claimed oligopeptide and combinations thereof (Mechanical mix) were diluted with 0.9% Sodium chloride to a concentration of 450 μg/ml. Volume of 0.33 ml (150 μg/rat/day) was injected SC during 6 days.
After 6 days of the injections cycle the animals were maintained and followed up till day 28th post EAE induction. Clinical signs score was performed daily during study periods. Animals were observed individually during all study periods. In cases of extended observation period clinical signs were recorded once daily. Observations included changes in the fur, eyes, respiratory rate, vocalization, paralysis, activity and behavior pattern. Score of paralysis signs related to MS of each animal was done daily (during all study periods).
Score gradation was as follows: 0—Normal; 1—Tail weakness; 2—Hind leg weakness or paralysis; 3—Hind leg paralysis, dragging hind limbs; 4—Complete paralysis, unable to move; 5—Death.

[3] = tested on: Experimental MS (Theiler's Virus Infection) in SJL mice; assay: Experimental MS (Theiler's Virus Infection): disease manifestation and MDS score; assay type: in vivo; conditions: days 14-24; for % Animals affected with disease at day 100: 30 mice per group
Description: as §2, §3

ESAMBPCAA [4] = assay: ESAMBPCAA mediated MBP hydrolysis in serum samples of progressive MS patients in presence of test substances; assay type: biochemical, human; conditions: for MBP-specific auto antibody mediated hydrolysis: test substance 100 nM; for suppressive effect on MBP-specific auto antibody mediated hydrolysis: 100 nM, summary of Table 3
Description: as §1
Serum samples collected from 5 patients suffering from progressive MS were quantified for ESAMBPCAA mediated MBP hydrolysis as specified in Example 1 in presence of following substances: […]

[5] = tested on: relapsing-remitting multiple sclerosis patients; conditions: Neurology 1995; 45: 1268; cited from earlier work
ESAMBPCAA [6] = assay: ESAMBPCAA mediated MBP hydrolysis in serum of treated EAE DA rats; assay type: in vivo; conditions: days 8-12; for rates of MBP-specific auto antibody mediated hydrolysis: 120 μg daily intranasal, median for 6 animals; for suppression of MBP-specific auto antibody mediated hydrolysis: intranasal, dose-dependent for SEQ ID NO: 2
[7] = tested on: secondary progressive MS patients; conditions: phase I; cited from earlier work
[8] = tested on: Experimental Allergic Encephalomyelitis (EAE) in DA rats; assay: MDS score in EAE DA rats; assay type: in vivo; conditions: intranasal, days 8-12; FIG. 4; dose-dependent for SEQ ID NO: 2
[9] = tested on: progressive multiple sclerosis patients; conditions: 500 mg intravenously every six months; cited from earlier work
antibodies to MBP = conditions: in vitro and in vivo (in blood of MS-patients); cited from earlier work
CD20+ B lymphocytes = conditions: relapsing-remitting multiple sclerosis (RRMS) patients; cited from earlier work
[10] = tested on: relapsing-remitting multiple sclerosis patients; conditions: Neurology 1993; 43: 662-7; cited from earlier work
[11] = 20 μg of each oligopeptide daily subcutaneous

## QGTLSKIFKLGGRDSRSGSPMARR [SEQ ID NO: 4]
ESAMBPCAA [1]; [11]
  ESAMBPCAA activity at day 100: 35.3 ± 5.1 pmol/min/nmol
  suppression of MBP-specific auto antibody mediated hydrolysis: do not affect
[2]
  therapeutic effect: moderate therapeutic effect
  Clinical signs score on day 23 after induction (mean): 0.8
[3]; [11]
  therapeutic effect: moderate therapeutic effect
  % Animals affected with disease at day 100: 27(30) %

## glatiramer acetate [A2, reference compound]
ESAMBPCAA [1]; 30 μg daily subcutaneous
  ESAMBPCAA activity at day 100: 39.8 ± 4.1 pmol/min/nmol
ESAMBPCAA [4]; Patient 1
  MBP-specific auto antibody mediated hydrolysis: 62.5 ± 1.2 pmol/min/nmol
ESAMBPCAA [4]; Patient 2
  MBP-specific auto antibody mediated hydrolysis: 72.6 ± 7.7 pmol/min/nmol
ESAMBPCAA [4]; Patient 3
  MBP-specific auto antibody mediated hydrolysis: 51.2 ± 3.5 pmol/min/nmol
ESAMBPCAA [4]; Patient 4
  MBP-specific auto antibody mediated hydrolysis: 47.7 ± 7.9 pmol/min/nmol
ESAMBPCAA [4]; Patient 5
  MBP-specific auto antibody mediated hydrolysis: 65.7 ± 5.4 pmol/min/nmol
[2]
  Clinical signs score on day 23 after induction (mean): 1.1
[3]; 30 μg daily subcutaneous
  % Animals affected with disease at day 100: 25(30) %
[5]
  Adverse Reactions: Low
  Clinical Observations: Decrease of relapse frequency: frequency—29%;
  Clinical Observations: EDSS score progression: Slowing EDSS
  MRI Data: decrease of active lesions: No statistical
ESAMBPCAA [6]; Day 8 (start of treatment)
  rates of MBP-specific auto antibody mediated hydrolysis: 51.4 ± 8.2 pmol/min/nmol
ESAMBPCAA [6]; Day 16
  rates of MBP-specific auto antibody mediated hydrolysis: 55.4 ± 5.7 pmol/min/nmol
ESAMBPCAA [6]; Day 24
  rates of MBP-specific auto antibody mediated hydrolysis: 62.2 ± 5.7 pmol/min/nmol

## SGKDS [A5]
ESAMBPCAA [4]; Patient 1
  MBP-specific auto antibody mediated hydrolysis: 57 ± 4.1 pmol/min/nmol
ESAMBPCAA [4]; Patient 2
  MBP-specific auto antibody mediated hydrolysis: 59.7 ± 5.7 pmol/min/nmol
ESAMBPCAA [4]; Patient 3
  MBP-specific auto antibody mediated hydrolysis: 44.2 ± 6.6 pmol/min/nmol
ESAMBPCAA [4]; Patient 4
  MBP-specific auto antibody mediated hydrolysis: 45.5 ± 3.8 pmol/min/nmol
ESAMBPCAA [4]; Patient 5
  MBP-specific auto antibody mediated hydrolysis: 55.7 ± 6.1 pmol/min/nmol

## MBP 84-102: MBP 84-102 fragment (U.S. Pat. No. 5,858,980) (DPGSRPHLIRLFSRDAPGR; UniProt P02686 84-102, looked up, fragment)
[7]
  treatment efficacy (Expanded Disability Status Scale, Nine Hole Peg Test, new lesions by Magnetic Resonance Imaging): No treatment efficacy were detected

## APKRGSGKDSH [A4]
[8]
  suppression of MDS score: active in suppression
ESAMBPCAA [4]
  suppressive effect on MBP-specific auto antibody mediated hydrolysis: potent suppressive effect
ESAMBPCAA [4]; Patient 1
  MBP-specific auto antibody mediated hydrolysis: 12.1 ± 3.6 pmol/min/nmol
ESAMBPCAA [4]; Patient 2
  MBP-specific auto antibody mediated hydrolysis: 15.6 ± 2.9 pmol/min/nmol
ESAMBPCAA [4]; Patient 3
  MBP-specific auto antibody mediated hydrolysis: 14.3 ± 4.4 pmol/min/nmol
ESAMBPCAA [4]; Patient 4
  MBP-specific auto antibody mediated hydrolysis: 15.8 ± 4.9 pmol/min/nmol
ESAMBPCAA [4]; Patient 5
  MBP-specific auto antibody mediated hydrolysis: 13.3 ± 5.9 pmol/min/nmol
ESAMBPCAA [6]; Day 8 (start of treatment)
  rates of MBP-specific auto antibody mediated hydrolysis: 49.3 ± 4.9 pmol/min/nmol
ESAMBPCAA [6]; Day 16
  rates of MBP-specific auto antibody mediated hydrolysis: 45.9 ± 7.1 pmol/min/nmol
ESAMBPCAA [6]; Day 24
  rates of MBP-specific auto antibody mediated hydrolysis: 45.1 ± 6.3 pmol/min/nmol
ESAMBPCAA [6]
  suppression of MBP-specific auto antibody mediated hydrolysis: active in suppression

## GFGYGGRASDYKSAHK [SEQ ID NO: 3]
ESAMBPCAA [1]; [11]
  ESAMBPCAA activity at day 100: 40 ± 3.1 pmol/min/nmol
  suppression of MBP-specific auto antibody mediated hydrolysis: do not affect
[2]
  therapeutic effect: moderate therapeutic effect
  Clinical signs score on day 23 after induction (mean): 0.9
[3]; [11]
  therapeutic effect: moderate therapeutic effect
  % Animals affected with disease at day 100: 25(30) %

## DENPVVHFFKNIVTPRT [MBP8298, synthetic peptide, amino acid residues 82-98 of MBP]
[9]
  responders on the treatment: responders on the treatment with MBP8298 are the patients with HLA heliotypes DR2 and/or DR4 only

## RGAPKRGSGKRGAPKRGSGKRGAPKRGSGKRGAPKRGSGKRGAPKRGSGKRGAPKRGSGK [A6]
[8]
  suppression of MDS score: active in suppression
ESAMBPCAA [4]
  suppressive effect on MBP-specific auto antibody mediated hydrolysis: potent suppressive effect
ESAMBPCAA [4]; Patient 1
  MBP-specific auto antibody mediated hydrolysis: 7.7 ± 3.3 pmol/min/nmol
ESAMBPCAA [4]; Patient 2
  MBP-specific auto antibody mediated hydrolysis: 22.3 ± 4.2 pmol/min/nmol
ESAMBPCAA [4]; Patient 3
  MBP-specific auto antibody mediated hydrolysis: 20.1 ± 3.9 pmol/min/nmol
ESAMBPCAA [4]; Patient 4
  MBP-specific auto antibody mediated hydrolysis: 21.5 ± 6.6 pmol/min/nmol
ESAMBPCAA [4]; Patient 5
  MBP-specific auto antibody mediated hydrolysis: 5.0 ± 1.8 pmol/min/nmol
ESAMBPCAA [6]; Day 8 (start of treatment)
  rates of MBP-specific auto antibody mediated hydrolysis: 45.7 ± 6.5 pmol/min/nmol
ESAMBPCAA [6]; Day 16
  rates of MBP-specific auto antibody mediated hydrolysis: 48.1 ± 7.4 pmol/min/nmol
ESAMBPCAA [6]; Day 24
  rates of MBP-specific auto antibody mediated hydrolysis: 39.4 ± 4.6 pmol/min/nmol
ESAMBPCAA [6]
  suppression of MBP-specific auto antibody mediated hydrolysis: active in suppression

## MBP 35-58: non-binding, control peptide, human MBP 35-58 (LSRTTSEDNEVFGEADANQNNGTS; UniProt P02686 35-58, looked up, fragment)
Antibodies to MBP
  effect on free and bound antibodies to MBP: no effect

## MBP 75-95: soluble synthetic peptide, residues 75-95 of human MBP (WO 98/45327) (NAWQDAHPADPGSRPHLIRLF; UniProt P02686 75-95, looked up, fragment)
Antibodies to MBP
  effect on free and bound antibodies to MBP: showed its ability to bound free antibodies to MBP both in vitro and in vivo

## rituximab: monoclonal antibody, which selectively targets and depletes CD20+ B lymphocytes
CD20+ B lymphocytes
  safety and efficacy of therapy: appears safe and effective to some extend

B1: Beta-Interferon: Beta-Interferon, existing standard of MS therapy (protein, UniProt P01574 22-187, looked up, variant C17S)
Interferon beta: MSYNLLGFLQRSSNFQSQKLLWQLNGRLEYCLKDRMNFDIPEEIKQLQQFQKEDAALTIYEMLQNIFAIFRQDSSSTGWNETIVENLLANVYHQINHLKTVLEEKLEKEDFTRGKLMSSLHLKRYYGRILHYLKAKEYSHCAWTIVRVEILRNFYFINRLTGYLRN
modifications: interferon beta-1b, lacks N-terminal Met
notes: Beta-Interferon, existing standard of MS therapy
[10]
  Adverse Reactions: High
  Clinical Observations: Decrease of relapse frequency: frequency—83%;
  Clinical Observations: EDSS score progression: No slowing EDSS
  MRI Data: decrease of active lesions: 83% decrease
